Source: patent publication US12398097B2, “WDR5-MYC inhibitors” (Vanderbilt University, priority 2019, dated 2025)
pKi: −log10 of the molar value.

Each compound was assayed against WDR5 (Homo sapiens, UniProt P61964) (assay: Competition-based fluorescence polarization anisotropy assay). Conditions: binding to WDR5; displacement of FITC-labeled small molecule probe (analogous to Example J2 or HCH-25) or peptide probe FITC-AHx-SEEEIDVVSV; pH 6.0; Ki converted from IC50.
In short: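 Ki values derive from displacement of either a fluorescent small-molecule probe or a FITC-peptide probe from WDR5, monitored by fluorescence polarization. Assay run at pH 6.0 in 200 mM phosphate with 300 mM NaCl, 0.5 mM TCEP and 0.1% Chaps.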

| pKi | Compound |
| --- | --- |
| 5.68 | COc1ccc(Br)cc1S(=O)(=O)Nc1cc(Cl)cc(C(=O)NCCCO)c1O [Example J53, 3-((5-Bromo-2-methoxyphenyl)sulfonamido)-5-chloro-2-hydroxy-N-(3-hydroxypropyl)benzamide] |
| 6.24 | Cc1c(C2CC2)cc(NS(=O)(=O)c2cc(Br)ccc2O)c(O)c1C(=O)O [Example J185, 3-((5-Bromo-2-hydroxyphenyl)sulfonamido)-5-cyclopropyl-2-hydroxy-6-methylbenzoic acid] |
| 5.96 | CN(C)CCNC(=O)c1cc(C2(C#N)CCC2)cc(NS(=O)(=O)c2cc(Br)ccc2O)c1O [Example J226, 3-((5-Bromo-2-hydroxyphenyl)sulfonamido)-5-(1-cyanocyclobutyl)-N-(2-(dimethylamino)ethyl)-2-hydroxybenzamide] |
| 5.95 | COCCNC(=O)c1cc(NS(=O)(=O)c2cc(Br)ccc2O)cc(C2CC2)c1F [Example J136, 5-((5-Bromo-2-hydroxyphenyl)sulfonamido)-3-cyclopropyl-2-fluoro-N-(2-methoxyethyl)benzamide] |
| 5.77 | O=C(c1cc(OC(F)(F)F)cc(NS(=O)(=O)c2cc(Br)ccc2O)c1O)N1CCC[C@H]1CO [Example J169, (S)-5-Bromo-2-hydroxy-N-(2-hydroxy-3-(2-(hydroxymethyl)pyrrolidine-1-carbonyl)-5-(trifluoromethoxy)phenyl)benzenesulfonamide] |
| 5.98 | COC[C@@H]1CCCN1C(=O)c1cc(OC(F)(F)F)cc(NS(=O)(=O)c2cc(Br)ccc2O)c1O [Example J171, (S)-5-Bromo-2-hydroxy-N-(2-hydroxy-3-(2-(methoxymethyl)pyrrolidine-1-carbonyl)-5-(trifluoromethoxy)phenyl)benzenesulfonamide] |
| 6.11 | O=C(NCCO)c1c(O)c(NS(=O)(=O)c2cc(Br)ccc2O)cc(C2CC2)c1F [Example J126, 3-((5-Bromo-2-hydroxyphenyl)sulfonamido)-5-cyclopropyl-6-fluoro-2-hydroxy-N-(2-hydroxyethyl)benzamide] |
| 6.89 | O=C(Nc1nc[nH]n1)c1cc(NS(=O)(=O)c2cc(Br)cc(Cl)c2O)cc(C2CC2)c1F [Example J154, 5-((5-Bromo-3-chloro-2-hydroxyphenyl)sulfonamido)-3-cyclopropyl-2-fluoro-N-(1H-1,2,4-triazol-3-yl)benzamide] |
| 6.03 | COc1ccc(Br)cc1S(=O)(=O)Nc1cc(Cl)cc(C(=O)NC2CCOC2)c1O (stereo not drawn) [Example J60, 3-((5-Bromo-2-methoxyphenyl)sulfonamido)-5-chloro-2-hydroxy-N-(tetrahydrofuran-3-yl)benzamide] |
| 6.11 | CC(C)N(CCSc1cc(Cl)cc(NS(=O)(=O)c2cc(Br)cc(Cl)c2O)c1)C(C)C [Example S36, 5-Bromo-3-chloro-N-(3-chloro-5-((2-(diisopropylamino)ethyl)thio)phenyl)-2-hydroxybenzenesulfonamide] |
| 5.83 | COCCNC(=O)c1cc(C2CC2)cc(NS(=O)(=O)c2cc(Br)ccc2O)c1F [Example J142, 3-((5-Bromo-2-hydroxyphenyl)sulfonamido)-5-cyclopropyl-2-fluoro-N-(2-methoxyethyl)benzamide] |
| 6.59 | NC(=O)[C@H](CO)NC(=O)c1cc(OC(F)(F)F)cc(NS(=O)(=O)c2cc(Br)ccc2O)c1O [HCH-47, (S)—N-(1-Amino-3-hydroxy-1-oxopropan-2-yl)-3-((5-bromo-2-hydroxyphenyl)sulfonamido)-2-hydroxy-5-(trifluoromethoxy)benzamide] |
| 6.89 | O=C(O)c1cc(C2CC2)cc(NS(=O)(=O)c2cc(Br)cc(Cl)c2O)c1O [Example J70, 3-((5-Bromo-3-chloro-2-hydroxyphenyl)sulfonamido)-5-cyclopropyl-2-hydroxybenzoic acid] |
| 6.82 | CS(=O)(=O)c1cc(NS(=O)(=O)c2cc(Br)cc(Cl)c2O)cc(C2(C#N)CCC2)c1 [Example S72, 5-Bromo-3-chloro-N-(3-(1-cyanocyclobutyl)-5-(methylsulfonyl)phenyl)-2-hydroxybenzenesulfonamide] |
| 5.95 | O=[N+]([O-])c1cc(Cl)cc(NS(=O)(=O)c2cc(Br)cc3c2OCC3)c1O [NE7, 5-Bromo-N-(5-chloro-2-hydroxy-3-nitrophenyl)-2,3-dihydrobenzofuran-7-sulfonamide] |
| 5.58 | CNC(=O)c1cc(C2(C#N)CCC2)cc(NS(=O)(=O)c2cc(Br)c(F)cc2OC)c1O [SN-5, 3-((5-bromo-4-fluoro-2-methoxyphenyl)sulfonamido)-5-(1-cyanocyclobutyl)-2-hydroxy-N-methylbenzamide] |
| 6.43 | O=C1NCCN1c1cc(Cl)cc(NS(=O)(=O)c2cc(Br)cc(Cl)c2O)c1 [NE14, 5-Bromo-3-chloro-N-(3-chloro-5-(2-oxoimidazolidin-1-yl)phenyl)-2-hydroxybenzenesulfonamide] |
| 6.40 | CC(C)N(CCS(=O)(=O)c1cc(Cl)cc(NS(=O)(=O)c2cc(Br)cc(Cl)c2O)c1)C(C)C [Example S37, 5-Bromo-3-chloro-N-(3-chloro-5-((2-(diisopropylamino)ethyl)sulfonyl)phenyl)-2-hydroxybenzenesulfonamide] |

| pKi | Compound |
| --- | --- |
| 6.59 | CNC(=O)c1cc(C2(C#N)CCC2)cc(NS(=O)(=O)c2cc(Br)cc(C)c2O)c1O [Example J212, 3-((5-Bromo-2-hydroxy-3-methylphenyl)sulfonamido)-5-(1-cyanocyclobutyl)-2-hydroxy-N-methylbenzamide] |
| 5.16 | COc1ccc(Br)cc1S(=O)(=O)Nc1cc(Cl)cc(C(=O)N2CCC[C@H]2CO)c1O [Example J54, (S)-5-Bromo-N-(5-chloro-2-hydroxy-3-(2-(hydroxymethyl)pyrrolidine-1-carbonyl)phenyl)-2-methoxybenzenesulfonamide] |
| 5.42 | CN(CC1CCCO1)C(=O)c1cc(Cl)cc(NS(=O)(=O)c2cc(Br)ccc2O)c1O (stereo not drawn) [Example J37, 3-((5-Bromo-2-hydroxyphenyl)sulfonamido)-5-chloro-2-hydroxy-N-methyl-N-((tetrahydrofuran-2-yl)methyl)benzamide] |
| 5.35 | O=C(N[C@H]1CCOC1)c1c(O)c(NS(=O)(=O)c2cc(Br)ccc2O)cc(C2CC2)c1F [Example J133, (S)-3-((5-Bromo-2-hydroxyphenyl)sulfonamido)-5-cyclopropyl-6-fluoro-2-hydroxy-N-(tetrahydrofuran-3-yl)benzamide] |
| 6.28 | O=C(O)c1cc(NS(=O)(=O)c2cc(Br)ccc2O)cc(C2CC2)c1F [Example J114, 5-((5-Bromo-2-hydroxyphenyl)sulfonamido)-3-cyclopropyl-2-fluorobenzoic acid] |
| 5.82 | COc1cc(F)c(Br)cc1S(=O)(=O)Nc1cc(C2CC2)cc(C(N)=O)c1O [Example J106, 3-((5-Bromo-4-fluoro-2-methoxyphenyl)sulfonamido)-5-cyclopropyl-2-hydroxybenzamide] |
| 6.64 | O=C(NCc1ccc(=O)[nH]c1)c1cc(Cl)cc(NS(=O)(=O)c2cc(Br)ccc2O)c1O [Example J35, 3-((5-Bromo-2-hydroxyphenyl)sulfonamido)-5-chloro-2-hydroxy-N-((6-oxo-1,6-dihydropyridin-3-yl)methyl)benzamide] |
| 6.09 | CS(=O)(=O)c1cc(NS(=O)(=O)c2cc(Br)ccc2O)cc(OC(F)(F)F)c1 [Example S11, 5-Bromo-2-hydroxy-N-(3-(methylsulfonyl)-5-(trifluoromethoxy)phenyl)benzenesulfonamide] |
| 6.13 | COc1ccc(Br)cc1S(=O)(=O)Nc1cc(OC(F)(F)F)cc(C(=O)NCC2CCCO2)c1O (stereo not drawn) [Example J179, 3-((5-Bromo-2-methoxyphenyl)sulfonamido)-2-hydroxy-N-((tetrahydrofuran-2-yl)methyl)-5-(trifluoromethoxy)benzamide] |
| 5.79 | NC(=O)c1cc(C2CC2)cc(NS(=O)(=O)c2cc(Br)ccc2O)c1O [Example J80, 3-((5-Bromo-2-hydroxyphenyl)sulfonamido)-5-cyclopropyl-2-hydroxybenzamide] |
| 7.70 | CS(=O)(=O)c1cc(Cl)cc(NS(=O)(=O)c2cc(Br)cc(Cl)c2O)c1O [Example S16-2, 5-Bromo-3-chloro-N-(5-chloro-2-hydroxy-3-(methylsulfonyl)phenyl)-2-hydroxybenzenesulfonamide] |
| 5.43 | COc1cc(Cl)c(Br)cc1S(=O)(=O)Nc1cc(Cl)cc(C(=O)O)c1O [Example J7, 3-((5-Bromo-4-chloro-2-methoxyphenyl)sulfonamido)-5-chloro-2-hydroxybenzoic acid] |
| 6.60 | CCS(=O)(=O)c1cc(Cl)cc(NS(=O)(=O)c2cc(Br)ccc2O)c1O [Example S22, 5-Bromo-N-(5-chloro-3-(ethylsulfonyl)-2-hydroxyphenyl)-2-hydroxybenzenesulfonamide] |
| 5.97 | CNC(=O)c1cc(C(C)(C)C)cc(NS(=O)(=O)c2cc(Br)ccc2O)c1O [Example J202, 3-((5-Bromo-2-hydroxyphenyl)sulfonamido)-5-(tert-butyl)-2-hydroxy-N-methylbenzamide] |
| 6.41 | CNC(=O)c1cc(C2(C#N)CCC2)cc(NS(=O)(=O)c2cc(Br)ccc2O)c1O [Example J208, 3-((5-Bromo-2-hydroxyphenyl)sulfonamido)-5-(1-cyanocyclobutyl)-2-hydroxy-N-methylbenzamide] |
| 7.52 | CS(=O)(=O)c1cc(S(F)(F)(F)(F)F)cc(NS(=O)(=O)c2cc(Br)cc(Cl)c2O)c1O [Example S18, 5-Bromo-3-chloro-2-hydroxy-N-(2-hydroxy-3-(methylsulfonyl)-5-(pentafluoro-λ^6-sulfaneyl)phenyl)benzenesulfonamide] |
| 5.07 | COC[C@H]1CCCN1C(=O)c1cc(Cl)cc(NS(=O)(=O)c2cc(Br)ccc2OC)c1O [Example J57, (R)-5-Bromo-N-(5-chloro-2-hydroxy-3-(2-(methoxymethyl)pyrrolidine-1-carbonyl)phenyl)-2-methoxybenzenesulfonamide] |

| Compound | pKi |
| --- | --- |
| Methyl 4-chloro-2-(N-(5-chloro-2-hydroxy-3-nitrophenyl)sulfamoyl)benzoate [NE4] | 5.74 |
